Laboratory results: ChEMBL document CHEMBL4376810, “Bioactive Secondary Metabolites from Bacillus subtilis: A Comprehensive Review” (2019)
Values after ≈ are worked out from the molar mass of the structure shown. Non-standard residues stand in square brackets, D forms with d. Residues, ends and D or L forms follow the SMILES beside them. *: point of attachment. Tridecanoyl(3R-OH,11-Me) = CCC(C)CCCCCCC[C@@H](O)CC(=O)*; X1 = CCC(C)CC(C)CCCCC[C@@H](O)CC(=O)*

Assays:
[1] = system: Staphylococcus aureus; experiment: Antibacterial activity against Staphylococcus aureus; assay type: functional
[2] = system: Bacillus pumilus; experiment: Antibacterial activity against Bacillus pumilus incubated for 24 hrs by broth microdilution method; assay type: functional
[3] = system: Micrococcus luteus; experiment: Antibacterial activity against Micrococcus luteus incubated for 24 hrs by broth microdilution method; assay type: functional
[4] = system: Staphylococcus aureus; experiment: Antibacterial activity against methicillin-resistant Staphylococcus aureus incubated for 24 hrs by broth microdilution method; assay type: functional
[5] = system: Staphylococcus aureus; experiment: Antibacterial activity against methicillin-resistant Staphylococcus aureus; assay type: functional
[6] = system: Streptococcus pneumoniae; experiment: Antibacterial activity against Streptococcus pneumoniae by broth microdilution method; assay type: functional
[7] = system: Staphylococcus aureus; experiment: Antibacterial activity against oxacillin-resistant Staphylococcus aureus by broth microdilution method; assay type: functional
[8] = system: Staphylococcus epidermidis; experiment: Antibacterial activity against Staphylococcus epidermidis by broth microdilution method; assay type: functional
[9] = system: Staphylococcus aureus; experiment: Antibacterial activity against methicillin-resistant Staphylococcus aureus incubated for 18 hrs by agar dilution assay; assay type: functional
[10] = system: Salmonella typhimurium; experiment: Antibacterial activity against Salmonella typhimurium incubated for 18 hrs by agar dilution assay; assay type: functional, Salmonella enterica subsp. enterica serovar Typhimurium; details: Salmonella enterica
[11] = system: Morganella morganii; experiment: Antibacterial activity against streptomycin-resistant Morganella morganii incubated for 18 hrs by agar dilution assay; assay type: functional
[12] = system: Rhizoctonia solani; experiment: Antifungal activity against Rhizoctonia solani assessed as inhibition of fungal growth incubated for 48 hrs by standard broth dilution assay; assay type: functional
[13] = system: Botrytis cinerea; experiment: Antifungal activity against Botrytis cinerea assessed as inhibition of fungal growth incubated for 48 hrs by standard broth dilution assay; assay type: functional
[14] = system: Colletotrichum acutatum; experiment: Antifungal activity against Colletotrichum acutatum assessed as inhibition of fungal growth incubated for 48 hrs by standard broth dilution assay; assay type: functional

Q: How did the MIC [1] turn out when `CC(C)C[C@H](NC(=O)[C@@H](O)[C@@H](O)[C@@H](N)CC(N)=O)[C@@H]1Cc2cccc(O)c2C(=O)O1` was run?
A: < 1 µg/mL

Q: `CC1=CC2C(OC3OC(C)C(O)C(O)C3O)CCCC2C2C(=O)OC(=O)/C(C)=C3/CC(O)C/C3=C/2C1/C=C/C=C/C=C(\C)CC(C)CC(O)C(C)C(=O)O` (stereo not drawn) was tested. Which MIC [2] did it give?
A: < 7 µg/mL

Q: And the MIC [3]?
A: < 7 µg/mL

Q: What about the MIC [4] of the same molecule?
A: < 7 µg/mL

Q: `CCCCCCCCCCCCC(=O)N[C@@H]1C(=O)N[C@H](CCC(N)=O)C(=O)N[C@@H](CC(=O)O)C(=O)NCC(=O)N[C@@H](CC(N)=O)C(=O)N[C@@H](CC(=O)O)C(=O)NCC(=O)N[C@@H](Cc2ccc(O)cc2)C(=O)N[C@@H](C(C)C)C(=O)OC1C` (stereo partly drawn) was tested. Which MIC [5] did it give?
A: 20 µg/mL (≈ 17.4 µM)

Q: `CC(C)C[C@H](NC(=O)[C@H]1OCN[C@@H](CC(N)=O)[C@@H]1O)[C@@H]1Cc2cccc(O)c2C(=O)O1` was tested. Which MIC [6] did it give?
A: 0.5 to 2 µg/mL (≈ 1.15 to 4.59 µM)

Q: What about the MIC [7] of the same molecule?
A: 0.5 to 2 µg/mL (≈ 1.15 to 4.59 µM)

Q: And the MIC [8]?
A: 0.5 to 2 µg/mL (≈ 1.15 to 4.59 µM)

Q: Which results are given for `C=C/C=C(\C)CCC1CCC/C=C\C=C(\C)C(OP(=O)(O)O)CCC\C=C/C=C\C=C\C=C\C(O)C(C)C(=C)CC(=O)O1` (stereo not drawn)?
A: MIC [9]: 2 to 32 µg/mL (≈ 3.25 to 52.1 µM); MIC [10]: 2 to 32 µg/mL (≈ 3.25 to 52.1 µM); MIC [11]: 2 to 32 µg/mL (≈ 3.25 to 52.1 µM)

Q: Which results are given for `C=C/C=C(\C)CCC1CCC/C=C\C=C(\C)C(OP(=O)(O)O)CCC\C=C/C=C\C=C\C=C\CC(C)C(=C)CC(=O)O1` (stereo not drawn)?
A: MIC [9]: 2 to 32 µg/mL (≈ 3.34 to 53.4 µM); MIC [10]: 2 to 32 µg/mL (≈ 3.34 to 53.4 µM); MIC [11]: 2 to 32 µg/mL (≈ 3.34 to 53.4 µM)

Q: For `CCCCCCCCCCCCCC(=O)N[C@@H]1C(=O)N[C@H](CCC(N)=O)C(=O)N[C@@H](CC(=O)O)C(=O)NCC(=O)N[C@@H](CC(N)=O)C(=O)N[C@@H](CC(=O)O)C(=O)NCC(=O)N[C@@H](Cc2ccc(O)cc2)C(=O)N[C@@H](C(C)C)C(=O)OC1C` (stereo partly drawn), which MIC [5] is on record?
A: 20 µg/mL (≈ 17.2 µM)

Q: With `CC1=CC2C(OC3OC(C)C(O)C(=O)C3O)CCCC2C2C(=O)OC(=O)/C(C)=C3/CC(O)C/C3=C/2C1/C=C/C=C/C=C(\C)CC(C)CC(O)C(C)C(=O)O` (stereo not drawn) as the molecule, how does the MIC [2] read?
A: < 7 µg/mL

Q: And the MIC [3]?
A: < 7 µg/mL

Q: And the MIC [4]?
A: < 7 µg/mL

Q: With `CCCCCCCCCCCC(=O)N[C@@H]1C(=O)N[C@H](CCC(N)=O)C(=O)N[C@@H](CC(=O)O)C(=O)NCC(=O)N[C@@H](CC(N)=O)C(=O)N[C@@H](CC(=O)O)C(=O)NCC(=O)N[C@@H](Cc2ccc(O)cc2)C(=O)N[C@@H](C(C)C)C(=O)OC1C` (stereo partly drawn) as the molecule, how does the MIC [5] read?
A: 20 µg/mL (≈ 17.7 µM)

Q: How did the MIC [2] turn out when `CC1=CC2C(OC3OC(C)C(O)C(=O)C3O)CCCC2C2C(=O)OC(=O)/C=C3/CC(O)C/C3=C/2C1/C=C/C=C/C=C(\C)CC(C)CC(O)C(C)C(=O)O` (stereo not drawn) was run?
A: < 7 µg/mL

Q: And the MIC [3]?
A: < 7 µg/mL

Q: And the MIC [4]?
A: < 7 µg/mL

Q: For `CCC(C)CC(C)CCCCC[C@@H](O)CC(=O)N[C@@H](CCC(=O)O)C(=O)N[C@@H](CC(C)C)C(=O)N[C@@H](CC(C)C)C(=O)N[C@@H](C(=O)N[C@@H](CC(=O)O)C(=O)N[C@@H](CC(C)C)C(=O)N[C@@H](CC(C)C)C(=O)O)C(C)C` (stereo partly drawn) (X1-ELL[dV]DLL-OH), which MIC [12] is on record?
A: 4 to 8 µg/mL (≈ 3.79 to 7.59 µM)

Q: And the MIC [13]?
A: 4 to 8 µg/mL (≈ 3.79 to 7.59 µM)

Q: And the MIC [14]?
A: 4 to 8 µg/mL (≈ 3.79 to 7.59 µM)

Q: How did the MIC [12] turn out when `CCC(C)CCCCCCC[C@@H](O)CC(=O)N[C@@H](CCC(=O)O)C(=O)N[C@@H](CC(C)C)C(=O)N[C@@H](CC(C)C)C(=O)N[C@@H](C(=O)N[C@@H](CC(=O)O)C(=O)N[C@@H](CC(C)C)C(=O)N[C@@H](CC(C)C)C(=O)O)C(C)C` (stereo partly drawn) ({Tridecanoyl(3R-OH,11-Me)}-ELL[dV]DLL-OH) was run?
A: 4 to 8 µg/mL (≈ 3.84 to 7.69 µM)

Q: And the MIC [13]?
A: 4 to 8 µg/mL (≈ 3.84 to 7.69 µM)

Q: And the MIC [14]?
A: 4 to 8 µg/mL (≈ 3.84 to 7.69 µM)
